# What was measured:
# [1] = system: MtMetAP1c; conditions: high-throughput screening; ref [2], [17]; cited from earlier work
# [2] = system: replicating Mtb; conditions: in vitro; ref [2]; cited from earlier work
# [3] = system: human MetAPs; conditions: in vitro; ref [2]; cited from earlier work
# [4] = system: MtMetAP1a; conditions: high-throughput screening; ref [2], [17]; cited from earlier work
# [5] = Stability of CLBQ14 in rat urine samples; type: in vitro ADME, Sprague Dawley rat
# [6] = Pharmacokinetic study, single IV bolus in adult male Sprague Dawley rats; type: in vivo; conditions: for AUC(0-inf) / C0 / clearance / half-life / Vd: male, Sprague Dawley, rat, plasma, iv
# [7] = Stability of CLBQ14 in rat plasma samples; type: in vitro ADME, Sprague Dawley rat
# [8] = system: aged non-growing Mtb; conditions: in vitro; ref [2]; cited from earlier work
# [9] = 2 mg/kg single IV bolus, male SD rats, n = 4, mean ± SD
# [10] = 5 mg/kg single IV bolus, male SD rats, n = 3, mean ± SD
# [11] = 10 mg/kg single IV bolus, male SD rats, n = 4, mean ± SD
# [12] = Sprague Dawley, rat, Freeze-thaw cycle stability, mean recovery ± SD
# [13] = Sprague Dawley, rat, Processed sample or auto-sampler stability, mean recovery ± SD, No IS
# [14] = Sprague Dawley, rat, Processed sample or auto-sampler stability, mean recovery ± SD, With IS
# [15] = Sprague Dawley, rat, Short-term (bench-top) stability, mean recovery ± SD
smiles,measurement,setting,value
"Oc1c(Br)cc(Cl)c2cccnc12 [CLBQ14, 7-bromo-5-chloroquinolin-8-ol]",Inhibition of MtMetAP1c,[1],potent and selective inhibitor
same,Potency against replicating Mtb,[2],great potency
same,Selectivity for both MtMetAPs over human MetAPs,[3],great selectivity
same,Inhibition of MtMetAP1a,[4],potent and selective inhibitor
same,Stability at room temperature,[5],stable for up to 6 hours
same,A (coefficient of distributional phase),[6]; [9],1.39 ± 0.27 mg/L
same,B (coefficient of terminal phase),[6]; [9],0.05 ± 0.00 mg/L
same,A (coefficient of distributional phase),[6]; [10],3.14 ± 0.42 mg/L
same,B (coefficient of terminal phase),[6]; [10],0.09 ± 0.04 mg/L
same,A (coefficient of distributional phase),[6]; [11],5.09 ± 1.36 mg/L
same,B (coefficient of terminal phase),[6]; [11],0.17 ± 0.07 mg/L
same,Administered dose excreted unchanged in urine,"[6]; after 24 hr, IV bolus, male SD rats",0.19 ± 0.04%
same,AUC(0-inf),[6]; 2 mg/kg,1360 ± 60 ng·h/mL
same,C0,[6]; 2 mg/kg,1440 ± 270 ng/mL
same,clearance,"[6]; 2 mg/kg, Cl (total clearance), 2 mg/kg single IV bolus, male SD rats, n = 4, mean ± SD",24.7 mL/min/kg
same,half-life,"[6]; 2 mg/kg, T1/2α (half-life of distributional phase), 2 mg/kg single IV bolus, male SD rats, n = 4, mean ± SD",0.16 ± 0.04 h
same,half-life,"[6]; 2 mg/kg, T1/2β (elimination half-life of the beta elimination phase), 2 mg/kg single IV bolus, male SD rats, n = 4, mean ± SD",14.8 ± 0.53 h
same,Vd,"[6]; 2 mg/kg, Vss (volume of distribution at steady state), 2 mg/kg single IV bolus, male SD rats, n = 4, mean ± SD",24.3 ± 1.28 L/kg
same,AUC(0-inf),[6]; 5 mg/kg,1960 ± 400 ng·h/mL
same,C0,[6]; 5 mg/kg,3240 ± 440 ng/mL
same,clearance,"[6]; 5 mg/kg, Cl (total clearance), 5 mg/kg single IV bolus, male SD rats, n = 3, mean ± SD",43.7 mL/min/kg
same,half-life,"[6]; 5 mg/kg, T1/2α (half-life of distributional phase), 5 mg/kg single IV bolus, male SD rats, n = 3, mean ± SD",0.17 ± 0.03 h
same,half-life,"[6]; 5 mg/kg, T1/2β (elimination half-life of the beta elimination phase), 5 mg/kg single IV bolus, male SD rats, n = 3, mean ± SD",10 ± 4.6 h
same,Vd,"[6]; 5 mg/kg, Vss (volume of distribution at steady state), 5 mg/kg single IV bolus, male SD rats, n = 3, mean ± SD",23.2 ± 11.5 L/kg
same,AUC(0-inf),[6]; 10 mg/kg,4830 ± 740 ng·h/mL
same,C0,[6]; 10 mg/kg,5270 ± 1430 ng/mL
same,clearance,"[6]; 10 mg/kg, Cl (total clearance), 10 mg/kg single IV bolus, male SD rats, n = 4, mean ± SD",35.2 mL/min/kg
same,clearance,"[6]; 10 mg/kg, Estimated total plasma clearance, across the 3 groups (2, 5 and 10 mg/kg IV bolus), male SD rats",≤ 43.7 mL/min/kg
same,Vd,"[6]; 10 mg/kg, Steady state volume of distribution, across the 3 groups (2, 5 and 10 mg/kg IV bolus), male SD rats",≤ 25.3 L/kg
same,half-life,"[6]; 10 mg/kg, T1/2α (half-life of distributional phase), 10 mg/kg single IV bolus, male SD rats, n = 4, mean ± SD",0.25 ± 0.09 h
same,half-life,"[6]; 10 mg/kg, T1/2β (elimination half-life of the beta elimination phase), 10 mg/kg single IV bolus, male SD rats, n = 4, mean ± SD",13.4 ± 3.59 h
same,Vd,"[6]; 10 mg/kg, Vss (volume of distribution at steady state), 10 mg/kg single IV bolus, male SD rats, n = 4, mean ± SD",27.3 ± 11.6 L/kg
same,recovery at 2.5 ng/mL,[7]; [12],104 ± 4.72%
same,recovery at 400 ng/mL,[7]; [12],95.9 ± 1.89%
same,recovery at 800 ng/mL,[7]; [12],96.8 ± 1.25%
same,recovery at 14 days,"[7]; Sprague Dawley, rat, Long-term stability, mean recovery ± SD",≤ 91.3%
same,recovery,"[7]; Sprague Dawley, rat, Mean recovery after three freeze-thaw cycles",> 95.9%
same,recovery at 2 h,[7]; [13],97.8 ± 1.11%
same,recovery at 4 h,[7]; [13],97.1 ± 5.42%
same,recovery at 6 h,[7]; [13],95.5 ± 6.69%
same,recovery at 2 h,[7]; [14],95.9 ± 1.87%
same,recovery at 4 h,[7]; [14],94.7 ± 4.2%
same,recovery at 6 h,[7]; [14],97.3 ± 5.55%
same,recovery at 2 h,[7]; [15],91.6 ± 4.06%
same,recovery at 4 h,[7]; [15],95.1 ± 3.24%
same,recovery at 6 h,[7]; [15],93.7 ± 1.17%
same,Stability at room temperature,"[7]; rat plasma samples, room temperature",stable for up to 6 hours
same,Potency against aged non-growing Mtb,[8],increased potency

# Reference: article PMC6163080 (Journal of chromatography. B, Analytical technologies in …, 2018)
